Our source for the TGI and GI50 values is PubChem BioAssay (NCI).

Molecules are shown by their SMILES. Several values for one entry are separate records, joined by “and”; a condition that tells them apart may be missing. Equal entries are not always repeated.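 Values below derive from 48-hour exposures of cells grown in 96-well plates, with endpoints linearly interpolated between the two concentrations bracketing the appropriate inhibition level. Abbreviation: GI50, concentration required for 50% inhibition of growth. Definition used: TGI = concentration required for complete inhibition of growth.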 Where only a bound is given, the exact number is not on record here.

One test has as its system NCI-H522 lung. The experiment in a line: NCI tumour cell line growth inhibition, 48 h.
For `COC(=O)[C@@H]1C[C@H]2OC(=O)CC[C@]2(C)O[C@H]1[C@H]1O[C@@](C)(O)CCC[C@H]1C`, the TGI was greater than 50 µM.

As for `CC(C)CCNC(=O)c1ccc(CNC(=O)/C=C/c2cccc(Oc3ccccc3)c2)cc1`, the TGI is greater than 100 µM.

`COc1cc2c(cc1OCCCCCCCCCCN1C(=O)c3cccc4cccc(c34)C1=O)N=C[C@@H]1CCCN1C2=O` returned a TGI of 28.9 µM.

In turn, `COc1ccc(Cn2c(=O)c(OC)c(C)c3cc4ccccc4cc32)cc1` displayed a TGI of 59.6 µM.

`CCOC(=O)Nc1cc2c(c(N)n1)N=C(c1ccc(OC)cc1)CN2`: the TGI worked out at 0.00636 µM.

`O=C1NC(=S)N/C1=C\c1cccs1` had a TGI greater than 100 µM.

Compound `CC(C)(C)C1CCC(=O)/C(=C/CC2CC(=O)N(c3ccccc3)C(=O)C2)C1` (stereo not drawn) had a TGI of 39.2 µM.

`C[C@@H](C(=O)O)N1C(c2ccco2)=C(/C(C=O)=C\c2ccco2)C(=O)/C1=C\c1ccco1` registered a TGI greater than 100 µM.

A further test relates to OVCAR-4 ovarian. The experiment in a line: NCI tumour cell line growth inhibition, 48 h.
In turn, `O=C1CS(=O)(=O)C(c2cccc(Oc3ccccc3)c2)N1c1ccc(Cl)cc1` (stereo not drawn) displayed a TGI greater than 100 µM.

Regarding `Cc1n(CC(C)C)c2c([n+]1C)C(=O)c1ccccc1C2=O`, the TGI is 1.02 µM.

As for `Cc1cccc(Cl)c1NCC(O)CN1CCN(C)CC1` (stereo not drawn), the TGI is greater than 100 µM.

In turn, `C=C(CCOC)CCC1CCCCC(CN(C)C)C1=O` (stereo not drawn) came in with a TGI greater than 100 µM.

`ONC1=Nc2cc(Cl)ccc2C(=S)N2CSCC12` (stereo not drawn) displayed a TGI greater than 100 µM.

With `Cc1nc2ccc(Br)cc2c(=O)n1-c1nnc(C(C)(C)C)s1`, the TGI was greater than 10 µM.

For the compound `COc1cc2c(cc1O)c(O)cc1c3cc(OC)c(OC)cc3c[n+](C)c21`, the TGI was greater than 100 µM.

Consider `CCOC(=O)c1sc(=S)n(-c2ccc(Cl)cc2)c1-n1cc(-c2ccccc2)c(C#N)c1N`, for which the TGI is 22.7 µM.

In the case of `COC1(OC)N=C(N)C2(C#N)C(c3ccccc3)NC3=C(CCC3)C12C#N` (stereo not drawn), the TGI was greater than 100 µM.

For the compound `NC(N)=NS(=O)(=O)c1ccc(NNc2c3ccccc3nc3ccccc23)cc1`, the TGI was determined as 21.7 µM.

For `COC(=O)[C@@H]1C[C@H]2OC(=O)CC[C@]2(C)O[C@H]1[C@H]1O[C@@](C)(O)CCC[C@H]1C`, the TGI is greater than 50 µM.

With `CC(C)CCNC(=O)c1ccc(CNC(=O)/C=C/c2cccc(Oc3ccccc3)c2)cc1`, the TGI was greater than 100 µM.

Compound `COc1cc2c(cc1OCCCCCCCCCCN1C(=O)c3cccc4cccc(c34)C1=O)N=C[C@@H]1CCCN1C2=O` had a TGI of 6.11 µM.

Regarding `COc1ccc(Cn2c(=O)c(OC)c(C)c3cc4ccccc4cc32)cc1`, the TGI is greater than 100 µM.

`CCOC(=O)Nc1cc2c(c(N)n1)N=C(c1ccc(OC)cc1)CN2`: the GI50 was 11.4 µM and the TGI came out at 49.4 µM.

`O=C1NC(=S)N/C1=C\c1cccs1` showed a TGI greater than 100 µM.

For `CC(C)(C)C1CCC(=O)/C(=C/CC2CC(=O)N(c3ccccc3)C(=O)C2)C1` (stereo not drawn), the TGI came to 77.4 µM.

The compound `C[C@@H](C(=O)O)N1C(c2ccco2)=C(/C(C=O)=C\c2ccco2)C(=O)/C1=C\c1ccco1` had a TGI greater than 100 µM.

The test system of the next test is OVCAR-5 ovarian. The experiment in a line: NCI tumour cell line growth inhibition, 48 h.
Consider `O=C1CS(=O)(=O)C(c2cccc(Oc3ccccc3)c2)N1c1ccc(Cl)cc1` (stereo not drawn), for which the TGI was greater than 100 µM.

Take `Cc1n(CC(C)C)c2c([n+]1C)C(=O)c1ccccc1C2=O`: the TGI turned out to be 0.824 µM.

Turning to `Cc1cccc(Cl)c1NCC(O)CN1CCN(C)CC1` (stereo not drawn), the TGI is greater than 100 µM.

Compound `C=C(CCOC)CCC1CCCCC(CN(C)C)C1=O` (stereo not drawn) came in with a TGI greater than 100 µM.

`ONC1=Nc2cc(Cl)ccc2C(=S)N2CSCC12` (stereo not drawn) registered a TGI greater than 100 µM.

As to `Cc1nc2ccc(Br)cc2c(=O)n1-c1nnc(C(C)(C)C)s1`, the TGI is greater than 10 µM.

In the case of `COc1cc2c(cc1O)c(O)cc1c3cc(OC)c(OC)cc3c[n+](C)c21`, the TGI was greater than 100 µM.

Compound `CCOC(=O)c1sc(=S)n(-c2ccc(Cl)cc2)c1-n1cc(-c2ccccc2)c(C#N)c1N` came in with a TGI greater than 100 µM.

As for `COC1(OC)N=C(N)C2(C#N)C(c3ccccc3)NC3=C(CCC3)C12C#N` (stereo not drawn), the TGI is greater than 100 µM.

With `NC(N)=NS(=O)(=O)c1ccc(NNc2c3ccccc3nc3ccccc23)cc1`, the TGI is 48.2 µM.

Compound `COC(=O)[C@@H]1C[C@H]2OC(=O)CC[C@]2(C)O[C@H]1[C@H]1O[C@@](C)(O)CCC[C@H]1C` came in with a TGI greater than 50 µM.

`CC(C)CCNC(=O)c1ccc(CNC(=O)/C=C/c2cccc(Oc3ccccc3)c2)cc1`: the TGI is greater than 100 µM.

The compound `COc1cc2c(cc1OCCCCCCCCCCN1C(=O)c3cccc4cccc(c34)C1=O)N=C[C@@H]1CCCN1C2=O` returned a TGI of 61.2 µM.

Consider `COc1ccc(Cn2c(=O)c(OC)c(C)c3cc4ccccc4cc32)cc1`, for which the TGI is greater than 100 µM.

With `CCOC(=O)Nc1cc2c(c(N)n1)N=C(c1ccc(OC)cc1)CN2`, the TGI was found to be 21.8 µM.

With `O=C1NC(=S)N/C1=C\c1cccs1`, the TGI is greater than 100 µM.

As to `CC(C)(C)C1CCC(=O)/C(=C/CC2CC(=O)N(c3ccccc3)C(=O)C2)C1` (stereo not drawn), the TGI was 41.6 µM.

`C[C@@H](C(=O)O)N1C(c2ccco2)=C(/C(C=O)=C\c2ccco2)C(=O)/C1=C\c1ccco1`: the TGI was greater than 100 µM.

The test system of a further test is PC-3 prostate. The experiment in a line: NCI tumour cell line growth inhibition, 48 h.
`O=C1CS(=O)(=O)C(c2cccc(Oc3ccccc3)c2)N1c1ccc(Cl)cc1` (stereo not drawn) came in with a TGI of 84.5 µM.

For `Cc1n(CC(C)C)c2c([n+]1C)C(=O)c1ccccc1C2=O`, the TGI is 0.337 µM.

`Cc1cccc(Cl)c1NCC(O)CN1CCN(C)CC1` (stereo not drawn) returned a TGI greater than 100 µM.

The compound `C=C(CCOC)CCC1CCCCC(CN(C)C)C1=O` (stereo not drawn) gave a TGI greater than 100 µM.

For `ONC1=Nc2cc(Cl)ccc2C(=S)N2CSCC12` (stereo not drawn), the TGI is greater than 100 µM.

The compound `Cc1nc2ccc(Br)cc2c(=O)n1-c1nnc(C(C)(C)C)s1` yielded a TGI greater than 10 µM.

The compound `COc1cc2c(cc1O)c(O)cc1c3cc(OC)c(OC)cc3c[n+](C)c21` registered a TGI greater than 100 µM.

Consider `CCOC(=O)c1sc(=S)n(-c2ccc(Cl)cc2)c1-n1cc(-c2ccccc2)c(C#N)c1N`, for which the TGI is 27 µM.

`COC1(OC)N=C(N)C2(C#N)C(c3ccccc3)NC3=C(CCC3)C12C#N` (stereo not drawn) came in with a TGI greater than 100 µM.

As for `NC(N)=NS(=O)(=O)c1ccc(NNc2c3ccccc3nc3ccccc23)cc1`, the TGI amounted to 25.3 µM.

Regarding `COC(=O)[C@@H]1C[C@H]2OC(=O)CC[C@]2(C)O[C@H]1[C@H]1O[C@@](C)(O)CCC[C@H]1C`, the TGI was greater than 50 µM.

Compound `CC(C)CCNC(=O)c1ccc(CNC(=O)/C=C/c2cccc(Oc3ccccc3)c2)cc1` returned a TGI greater than 100 µM.

`COc1cc2c(cc1OCCCCCCCCCCN1C(=O)c3cccc4cccc(c34)C1=O)N=C[C@@H]1CCCN1C2=O` showed a TGI of 12.3 µM.

Compound `COc1ccc(Cn2c(=O)c(OC)c(C)c3cc4ccccc4cc32)cc1` displayed a TGI of 49.2 µM.

Consider `CCOC(=O)Nc1cc2c(c(N)n1)N=C(c1ccc(OC)cc1)CN2`, for which the GI50 is 0.00142 µM; the TGI is 0.0521 µM and 0.48 µM.

For the compound `O=C1NC(=S)N/C1=C\c1cccs1`, the TGI was greater than 100 µM.

Regarding `CC(C)(C)C1CCC(=O)/C(=C/CC2CC(=O)N(c3ccccc3)C(=O)C2)C1` (stereo not drawn), the TGI was found to be 70.2 µM.

`C[C@@H](C(=O)O)N1C(c2ccco2)=C(/C(C=O)=C\c2ccco2)C(=O)/C1=C\c1ccco1`: the TGI was greater than 100 µM.

A further test concerns SK-MEL-2 melanoma. The experiment in a line: NCI tumour cell line growth inhibition, 48 h.
`O=C1CS(=O)(=O)C(c2cccc(Oc3ccccc3)c2)N1c1ccc(Cl)cc1` (stereo not drawn) had a TGI of 31.9 µM.

Regarding `Cc1n(CC(C)C)c2c([n+]1C)C(=O)c1ccccc1C2=O`, the TGI is 0.524 µM.

`Cc1cccc(Cl)c1NCC(O)CN1CCN(C)CC1` (stereo not drawn) returned a TGI greater than 100 µM.

Compound `C=C(CCOC)CCC1CCCCC(CN(C)C)C1=O` (stereo not drawn) displayed a TGI greater than 100 µM.
